Data as given in patent US12466809B2, “CDK2/5 degraders and uses thereof” (DANA-FARBER CANCER INSTITUTE, INC., priority 2019, dated 2025).

Target: CDK2/Cyclin A (Homo sapiens (Human), UniProt P24941)
Assay: Invitrogen Z'-LYTE kinase assay CDK2/Cyclin A (assay ID 315, Km app, 10-point titration)
Assay type: biochemical
Conditions: Km app ATP
Text: (§1) CDK2 and CDK5 IC50 data were attained through the use of Invitrogen™ commercial assays. The method for CDK2 (assay ID: 315, kinase|Z'-LYTE™|CDK2/Cyclin A|Km app) used a 10-point titration. The method for CDK5 (assay ID: 318, kinase|Z'-LYTE™|CDK5/p25|Km app) used a 10-point titration.

Row | IC50 [nM] | SMILES
1 | 6.4 | NC(=O)c1c(F)cccc1Nc1nc(NC2CCN(S(=O)(=O)CCNC(=O)CCOCCOCCOCCOCCNc3cccc4c3C(=O)N(C3CCC(=O)NC3=O)C4=O)CC2)ncc1Br (centres unmarked) [Compound 1, N-(2-((4-((5-bromo-4-((2-carbamoyl-3-fluorophenyl)amino)pyrimidin-2-yl)amino)piperidin-1-yl)sulfonyl)ethyl)-1-((2-(2,6-dioxopiperidin-3-yl)-1,3-dioxoisoindolin-4-yl)amino)-3,6,9,12-tetraoxapentadecan-15-amide]

Target: CDK5/p25 (Homo sapiens (Human), UniProt Q00535)
Sequence (Q00535 whole entry): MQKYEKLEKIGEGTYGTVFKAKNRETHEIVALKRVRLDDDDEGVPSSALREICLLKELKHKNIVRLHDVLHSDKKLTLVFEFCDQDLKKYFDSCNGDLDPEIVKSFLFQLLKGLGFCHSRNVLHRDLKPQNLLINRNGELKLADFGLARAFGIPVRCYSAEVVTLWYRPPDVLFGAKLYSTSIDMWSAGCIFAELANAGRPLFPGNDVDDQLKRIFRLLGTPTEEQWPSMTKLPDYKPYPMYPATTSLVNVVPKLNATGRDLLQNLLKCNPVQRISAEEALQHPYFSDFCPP
Sequence (Q15078 99-307 partner): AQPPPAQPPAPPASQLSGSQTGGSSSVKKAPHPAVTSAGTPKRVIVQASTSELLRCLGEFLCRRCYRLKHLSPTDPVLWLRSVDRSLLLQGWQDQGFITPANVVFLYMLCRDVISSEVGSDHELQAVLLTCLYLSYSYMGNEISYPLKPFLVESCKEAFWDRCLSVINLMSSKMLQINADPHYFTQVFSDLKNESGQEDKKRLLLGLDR
Assay: Invitrogen Z'-LYTE kinase assay CDK5/p25 (assay ID 318, Km app, 10-point titration)
Assay type: biochemical
Conditions: CDK5/p25, Km app ATP
Text: as §1

Row | SMILES | IC50 [nM]
2 | NC(=O)c1c(F)cccc1Nc1nc(NC2CCN(S(=O)(=O)CCNC(=O)CCOCCOCCOCCOCCNc3cccc4c3C(=O)N(C3CCC(=O)NC3=O)C4=O)CC2)ncc1Br (centres unmarked) [Compound 1, N-(2-((4-((5-bromo-4-((2-carbamoyl-3-fluorophenyl)amino)pyrimidin-2-yl)amino)piperidin-1-yl)sulfonyl)ethyl)-1-((2-(2,6-dioxopiperidin-3-yl)-1,3-dioxoisoindolin-4-yl)amino)-3,6,9,12-tetraoxapentadecan-15-amide] | 8.1
3 | Cc1ncsc1-c1ccc([C@H](C)NC(=O)[C@@H]2C[C@@H](O)CN2C(=O)[C@@H](NC(=O)CCOCCOCCC(=O)NCCS(=O)(=O)N2CCC(Nc3ncc(Br)c(Nc4cccc(F)c4C(N)=O)n3)CC2)C(C)(C)C)cc1 [Compound 11, (2S,4R)-1-((S)-16-((4-((5-bromo-4-((2-carbamoyl-3-fluorophenyl)amino)pyrimidin-2-yl)amino)piperidin-1-yl)sulfonyl)-2-(tert-butyl)-4,13-dioxo-7,10-dioxa-3,14-diazahexadecanoyl)-4-hydroxy-N—((S)-1-(4-(4-methylthiazol-5-yl)phenyl)ethyl)pyrrolidine-2-carboxamide] | 4.8
4 | Cc1ncsc1-c1ccc([C@H](C)NC(=O)[C@@H]2C[C@@H](O)CN2C(=O)[C@@H](NC(=O)CCC(=O)NCCS(=O)(=O)N2CCC(Nc3ncc(Br)c(Nc4cccc(F)c4C(N)=O)n3)CC2)C(C)(C)C)cc1 [Compound 12, N^1-(2-((4-((5-bromo-4-((2-carbamoyl-3-fluorophenyl)amino)pyrimidin-2-yl)amino)piperidin-1-yl)sulfonyl)ethyl)-N^4—((S)-1-((2S,4R)-4-hydroxy-2-(((S)-1-(4-(4-methylthiazol-5-yl)phenyl)ethyl)carbamoyl)pyrrolidin-1-yl)-3,3-dimethyl-1-oxobutan-2-yl)succinamide] | 3.7
5 | NC(=O)c1c(F)cccc1Nc1nc(NC2CCN(S(=O)(=O)CCNC(=O)CCC(=O)NCCCCCNc3cccc4c3C(=O)N(C3CCC(=O)NC3=O)C4=O)CC2)ncc1Br (centres unmarked) [Compound 13, N^1-(2-((4-((5-bromo-4-((2-carbamoyl-3-fluorophenyl)amino)pyrimidin-2-yl)amino)piperidin-1-yl)sulfonyl)ethyl)-N^4-(5-((2-(2,6-dioxopiperidin-3-yl)-1,3-dioxoisoindolin-4-yl)amino)pentyl)succinamide] | 4.3

The remaining lines, values ahead:

Row | IC50 [nM] | SMILES
6 | 31.2 | NC(=O)c1c(F)cccc1Nc1nc(NC2CCN(S(=O)(=O)CCNC(=O)CCCCCCCCC#Cc3cccc4c3CN(C3CCC(=O)NC3=O)C4=O)CC2)ncc1Br (centres unmarked) [Compound 14, 2-((5-bromo-2-((1-((2-(11-(2-(2,6-dioxopiperidin-3-yl)-1-oxoisoindolin-4-yl)undec-10-ynamido)ethyl)sulfonyl)piperidin-4-yl)amino)pyrimidin-4-yl)amino)-6-fluorobenzamide]
7 | 18.2 | NC(=O)c1c(F)cccc1Nc1nc(NC2CCN(S(=O)(=O)CCNC(=O)CCCCCCCCCCc3cccc4c3CN(C3CCC(=O)NC3=O)C4=O)CC2)ncc1Br (centres unmarked) [Compound 15, 2-((5-bromo-2-((1-((2-(11-(2-(2,6-dioxopiperidin-3-yl)-1-oxoisoindolin-4-yl)undecanamido)ethyl)sulfonyl)piperidin-4-yl)amino)pyrimidin-4-yl)amino)-6-fluorobenzamide]
8 | 4370 | O=C(CCCCCCCCC#Cc1cccc2c1CN(C1CCC(=O)NC1=O)C2=O)NCCS(=O)(=O)N1CCC(Nc2ncc(Br)c(Nc3cccc4c3OCO4)n2)CC1 (centres unmarked) [Compound 16, N-(2-((4-((4-(benzo[d][1,3]dioxol-4-ylamino)-5-bromopyrimidin-2-yl)amino)piperidin-1-yl)sulfonyl)ethyl)-11-(2-(2,6-dioxopiperidin-3-yl)-1-oxoisoindolin-4-yl)undec-10-ynamide]
